Experimental data reported in patent publication US11311593B2, “Root extracts from plants of the Morus genus and uses of same” (PLANT ADVANCED TECHNOLOGIES PAT, priority 2017, dated 2022).

Assays:
[1] = target: T1, hyaluronidase originating from bull testicles (type IV-S) (Bos taurus, UniProt Q2YDK3); assay: Anti-hyaluronidase inhibiting activity, hyaluronic acid as substrate, precipitation with acidic BSA; format: biochemical
T1 construct: hyaluronidase originating from bull testicles (type IV-S); from tissue; host or cells: bull testicles
T1 sequence (Q2YDK3 36-553): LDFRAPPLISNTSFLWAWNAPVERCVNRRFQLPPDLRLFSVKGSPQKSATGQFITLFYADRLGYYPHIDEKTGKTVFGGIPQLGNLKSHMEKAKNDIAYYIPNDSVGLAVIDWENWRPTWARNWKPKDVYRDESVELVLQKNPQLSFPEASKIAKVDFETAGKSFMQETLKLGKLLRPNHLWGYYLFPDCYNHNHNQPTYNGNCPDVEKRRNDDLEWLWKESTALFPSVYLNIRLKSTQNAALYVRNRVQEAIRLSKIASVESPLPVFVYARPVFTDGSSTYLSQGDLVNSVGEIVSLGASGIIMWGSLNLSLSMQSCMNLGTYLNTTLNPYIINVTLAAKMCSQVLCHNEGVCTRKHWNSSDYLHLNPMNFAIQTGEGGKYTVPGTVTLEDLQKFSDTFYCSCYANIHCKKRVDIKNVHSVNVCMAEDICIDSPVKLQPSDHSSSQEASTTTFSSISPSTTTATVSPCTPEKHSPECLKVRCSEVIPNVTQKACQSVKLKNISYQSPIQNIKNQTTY
Method: A root extract of Morus Alba was prepared in accordance with the protocol described in Example 5. Hyaluronidase catalyzes the hydrolysis of hyaluronic acids into monosaccharides, disaccharides and short oligosaccharides. The measurement of the anti-hyaluronidase inhibiting activity was carried out using hyaluronic acid (HA) as a substrate in order to follow its reduction during the enzymatic reaction, the slope of the reduction of the concentration of HA during the reaction being proportional to the enzymatic activity.
The concentration of HA was measured in accordance with the following principle: in the presence of an acidic solution of bovine serum albumin, HA precipitates. Thus, in the case of the presence of HA, a precipitate is formed and in the case of complete hydrolysis of the HA, no precipitate is observed. Thus, the quantity of precipitation is proportion& to the HA content. […]
In order to follow the enzymatic degradation of the HA, a volume of 50 μl of RM was removed every 15 minutes, mixed with a volume of 250 μL of the solution of acidic BSA (acidic solution of bovine serum albumin: 24 mM sodium acetate, 79 mM acetic add and 0.1% (w/v) bovine serum albumin, pH 3.75) then incubated for 10 min at ambient temperature. The quantity of precipitate formed was then measured using a plate reader (diffusion of light at 600 nm). […]

[2] = test system: hyaluronidase; assay: Target Binding affinity test for hyaluronidase; settings: ligands in non-stimulated M. alba root extract; moracenin B = reference ligand
Method: A root extract of Morus Alba was prepared in accordance with the protocol described in Example 2.1. The Target Binding® method used was that of Example 2.3 which is described in patent application FR 1 670 545. The experimental protocol was as follows: The target, a 5 mg/mL solution of hyaluronidase, was prepared by dissolving powdered lyophilized enzyme in 50 mM sodium phosphate, with a pH of 7.0. The extract corresponded to the supernatant obtained in accordance with Example 2.1. It could optionally be centrifuged once again before use, at 21000 g for 15 min, in order to eliminate the solid particles before use. A reference sample was also prepared by diluting the sample 10-fold in a solution of water and a quarter of the volume of acetonitrile.
1. Preconditioning step—Wells with a filtering membrane were preconditioned with a volume of 500 μL of a solution of 50 mM sodium phosphate, at a pH of 7.0 which was passed through the membrane by centrifuging at 14000 g for 60 seconds.
2. Binding step—The hyaluronidase preparation (5 mg/mL) was mixed with 7.5 μL of the root extract for 5 min in a plastic Eppendorf tube.
3. Washing step—the mixture of the enzyme and the root extract was deposited in a well that had been preconditioned in the preconditioning step, then centrifuged at 14000 g until most of the solvent had been eliminated. The enzyme-ligand complexes remained on the surface of the membrane of the filter then were re-suspended in a volume of 100 μL of the same solution of 50 mM sodium phosphate at a pH of 7.0, and centrifuged at 14000 g until the solvent had been eliminated. This procedure was repeated three times and eliminated all of the compounds that were not bound to the enzyme. 4. Separation step—The enzyme-ligand complexes retained in the filter were re-suspended in a volume of 10 μL of ultra-pure water then mixed with a volume of 40 μL of acetonitrile in order to denature and precipitate the enzyme and at the same time to liberate the ligands. The mixture was centrifuged at 21000 g for 10 min in order to separate the precipitate from the supernatant. 5. Analysis step—Said supernatant was analyzed by liquid phase chromatography coupled to a mass spectrometer, also known by the acronym UPLC-MS. The reference sample was also analyzed in the same manner, using the same analytical conditions.
(§1) The UPLC-MS analysis was carried out in accordance with the protocol described in Example 1.

[3] = test system: collagenase obtained from Clostridium Histolyticum; assay: Target Binding affinity test for collagenase; settings: ligands in non-stimulated M. alba root extract; moracenin B = reference ligand
Method: A root extract of Morus alba was prepared in accordance with the protocol described in Example 2.1. The Target Binding® method used was that of Example 2.3 which is described in patent application FR 1 670 545. The experimental protocol was as follows:
The target, a 6.25 mg/mL solution of collagenase obtained from Clostridium histolyticum, was prepared by dissolving lyophilized enzyme powder in 50 mM saline phosphate buffer with a pH of 7.5. The sample to be analyzed corresponded to the supernatant of the root extract obtained in accordance with Example 2.1. It could be centrifuged once again before use, at 21000 g for 15 min, in order to remove any traces of solid particles. A reference sample was also prepared by diluting the sample to be analyzed 10-fold in a solution of water and a quarter of the volume of acetonitrile.
1. Preconditioning step—Wells with a filtering membrane were preconditioned with a volume of 500 μL of a saline phosphate buffer which was passed through the membrane by centrifuging at 14000 g for 60 seconds.
2. Binding step—A volume of 92.5 μL of the solution obtained from the pretreatment step was mixed with 7.5 μL of the sample to be analyzed for 10 min in a plastic Eppendorf tube.
3. Washing step—The mixture of the enzyme and the sample to be analyzed was deposited in a well that had been preconditioned in the preconditioning step, then centrifuged at 14000 g until most of the solvent had been eliminated. The enzyme-ligand complexes remained on the surface of the filter membrane, then were re-suspended in a volume of 100 μL of the same saline phosphate buffer solution and centrifuged at 14000 g until the solvent had been eliminated. This procedure was repeated three times and eliminated all of the compounds that were not bound to the enzyme. 4. Separation step—The enzyme-ligand complexes retained in the filter were re-suspended in a volume of 10 μL of ultra-pure water then mixed with a volume of 30 μL of acetonitrile in order to denature and precipitate the enzyme and, at the same time, to liberate the ligands. The mixture was centrifuged at 21000 g for 10 min in order to separate the precipitate from the supernatant. 5. Analysis step—Said supernatant was analyzed by liquid phase chromatography coupled to a mass spectrometer. The reference sample was also analyzed in the same manner, using the same analytical conditions.
as §1

[4] = test system: fungal tyrosinase; assay: Target Binding affinity test for tyrosinase (UPLC-MS of bound ligands)
From the text: It is based on the principle of bringing the ligands and the target into contact in the liquid phase so that the ligands that have the greatest affinity with the target bind to it, elimination of the ligands that are not fixed, separation of the complexes in order to recover the ligands which have been fixed, then quantification of the latter. In a first step of the method, the extract and the target are mixed. The compounds of the extract compete for access to the binding sites of the target. The strongest compounds displace the weakest and are retained more effectively by the target. […] A reference sample was also prepared by diluting the sample to be analyzed 10-fold in a solution of water and a quarter of the volume of acetonitrile. […] Pre-conditioning step-Wells with a filtering membrane were pre-conditioned with a volume of 500 μL of an 85% solution of ammonium acetate and 15% of ethanol which was passed through the membrane by centrifuging at 14000 g for 60 seconds. 2. […] 3. Washing step-The mixture of the enzyme and the sample to be analyzed was deposited in a well that had been pre-conditioned in the pre-conditioning step, then centrifuged at 14000 g until most of the solvent had been eliminated. […] This procedure was repeated three times and eliminated all of the compounds that were not bound to the enzyme. 4. Separation step-The enzyme-ligand complexes retained in the filter were re-suspended in a volume of 10 μL of ultra-pure water, then mixed with a volume of 40 μL of acetonitrile in order to denature and precipitate the enzyme and, at the same time, to liberate the ligands. The mixture was centrifuged at 21000 g for 10 min in order to separate the precipitate from the supernatant. 5. Analysis step-Said supernatant was analyzed by liquid phase chromatography coupled to a mass spectrometer, also known by the acronym UPLC-MS. The reference sample was also analyzed in the same manner, using the same analytical conditions. The UPLC-MS analysis was carried out in accordance with the protocol described in Example 1. The chromatograms obtained are presented in FIGS. 3A and 3B and represent a signal intensity as a function of retention time in a column. […] Each peak is associated with one of the ligands present in the analyzed extract. The quantity associated with each ligand corresponds to the area of the peak. […] For each ligand, an affinity ratio, RACEi, was calculated as follows: [formula] where: NF is a normalization factor; […] the intensity of the analytical signal for the ligand CEi in the reference sample; ISeq,REF is the intensity of the analytical signal for the reference ligand REF (here, moracenin B) in the reference sample; […] the intensity of the analytical signal for the ligand CEi in the treated solution (the sample to be analyzed after steps 2 to 4 for binding and separation of the ligands) for the detached ligands; ISTB,REF is the intensity of the analytical signal for the reference ligand REF (here, moracenin B) in the treated solution (the sample to be analyzed after steps 2 to 4 for binding and separation of the ligands) for the detached ligands; RA, CEi is the relative affinity ratio (RA), representing an affinity of the ligand CEi for the target. The value of the ratio increases with affinity.

Row | Structure (SMILES) | inhibition at 10 µM [1] [%] | Relative affinity (RA) for hyaluronidase [2] | Relative affinity (RA) for collagenase [3] | Relative affinity (RA) for tyrosinase ([4]; ligands in non-stimulated M. alba root extract, moracenin B = reference ligand) | affinity for tyrosinase compared with the other compounds of the extract (in words) ([4]; peak areas of FIG. 3B / relative affinities)
1 | O=c1c(O)c(-c2ccc(O)c(O)c2)oc2cc(O)cc(O)c12 [quercetin, reference compound] | 15.6 |  |  |  | 
2 | CC(C)=CCc1c(O)ccc(C(=O)C2C(c3c(O)cc(-c4cc5ccc(O)c(CC=C(C)C)c5o4)cc3O)C=C(C)CC2c2ccc(O)cc2O)c1O (centres unmarked) [Mulberrofuran T, mulberrofuran T] |  | 2.7 | 1.1 | 36.2 | greater affinity
